Here are results for nine compounds from ChEMBL document CHEMBL3745682, “Pivotal role of glycogen synthase kinase-3: A therapeutic target for Alzheimer's disease” (Eur J Med Chem, 2016).

Assay [1] deals with T1, Glycogen synthase kinase-3 (Homo sapiens, UniProt P49840+P49841). The format is protein assay.
Description: Inhibition of glycogen synthase kinase-3 (unknown origin)
Assay [2] addresses T2, Glycogen synthase kinase-3 beta (Homo sapiens, UniProt P49841).
Description: Competitive inhibition of glycogen synthase kinase-3 beta (unknown origin) using GS-1 as substrate after 30 mins by scintillation counting analysis in presence of [gamma-32P]-ATP
Assay [3] deals with T2, Glycogen synthase kinase-3 beta. Put plainly: Inhibition of glycogen synthase kinase-3 beta (unknown origin) using GS-1 as substrate after 20 mins by scintillation counting analysis in presence of [gamma-32P]-ATP.
Assay [4] has as its target T1, Glycogen synthase kinase-3. Kind of assay: Competitive inhibition of glycogen synthase kinase-3 (unknown origin) in presence of ATP. The assay is classed as protein assay.

Where only a bound is given, the exact number is not on record here.

T2 sequence (P49841 whole entry): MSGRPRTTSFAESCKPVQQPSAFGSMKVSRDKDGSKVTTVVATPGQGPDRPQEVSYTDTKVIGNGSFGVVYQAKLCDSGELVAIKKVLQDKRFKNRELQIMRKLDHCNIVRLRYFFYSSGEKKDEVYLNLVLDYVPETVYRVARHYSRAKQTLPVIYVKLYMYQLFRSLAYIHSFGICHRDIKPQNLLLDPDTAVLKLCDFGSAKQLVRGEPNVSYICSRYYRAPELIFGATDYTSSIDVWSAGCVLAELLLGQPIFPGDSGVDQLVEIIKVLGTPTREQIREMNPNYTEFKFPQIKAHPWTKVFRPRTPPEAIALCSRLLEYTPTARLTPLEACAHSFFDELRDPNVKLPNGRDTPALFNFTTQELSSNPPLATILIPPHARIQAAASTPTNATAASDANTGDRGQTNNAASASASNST

As usually defined, the IC50 is the concentration needed to halve the response being measured. In assay [1], `CC(=O)C1=C(c2cn(C)c3ccccc23)C(=O)NC1=O` showed an IC50 of 4.47 µM.
In assay [2], `O=C1Nc2ccccc2/C1=C1/Nc2cc(Br)ccc2C1=O` returned an IC50 of 0.004 µM.
As to `O=C(CBr)c1ccc(C2C(=O)c3ccccc3C2=O)cc1`, the IC50 in assay [3] was found to be 100 µM.
As for `Br.CCOC(=O)C/N=C1\NC(c2ccccc2)N(c2ccccc2)S1` (centres undefined), the IC50 in assay [1] came out at 7.05 µM.
On the same count and under the same terms, to `Clc1cccc(C2=NC(c3ccccc3)=NN(c3ccccc3)c3ccccc32)c1` belongs 3.38 µM.
Consider `O=S=C(CCl)c1ccc(Cl)cc1`, for which the half-maximal inhibitory concentration (IC50) in assay [3] is above 100 µM.
Take `Br.Br.c1ccc(C/N=C2\NC(c3ccccc3)N(c3ccccc3)S2)cc1` (centres undefined): the IC50 in assay [1] came to 1.28 µM.
For the compound `COc1ccc(CNC(=O)Nc2nc(C)c(C(C)=O)s2)cc1`, the IC50 in assay [4] is 0.4 µM.
With `O=C1Nc2ccccc2/C1=C1/Nc2ccccc2C1=O` [INDIRUBIN], half-maximal inhibition in assay [2] (IC50) was put at 0.004 µM.
